This note sets out measurements from US20200129523A1, “SHIP INHIBITION TO INDUCE EXPRESSION OF GRANULOCYTE COLONY STIMULATING FACTOR IN A SUBJECT” (THE RESEARCH FOUNDATION FOR THE STATE UNIVERSITY OF NEW YORK, priority 2014, published 2020).

In the assay the test system is HSC compartment. As to the kind of experiment: Flow cytometric quantitation of hematopoietic stem/progenitor populations and cellularity in bone marrow of treated mice. The format is in vivo, C57BL/6NTac mice. The conditions noted are these: K118 10 mg/kg i.p. 5 days, vs H2O. Here is the method:
HSC phenotype, cell-cycle progression, G-CSF neutralization, and CXCR4 MFI determination by FACS analysis was performed on whole bone marrow (WBM) cells harvested from a tibia and femur pair obtained from SHIPi and vehicle treated 8-12 week old male C57BL/6NTac mice (Taconic). Generation of the CD45.1×CD45.2 strain utilized in the CRU assay were obtained by intercrossing C57BL6/J (CD45.2) and B6.SJL (CD45.1), as previously described.^5 The SUNY Upstate Medical University Committee for Humane Use of Animals approved all animal experiments.
In vivo administration of 3AC was previously described.^14 Briefly, 3AC is resuspended as an emulsion in 0.3% Klucel/H20. Mice were treated via intraperitoneal injection every 24 hrs for 5 days at a final concentration of 26.5 mg/kg. Analysis and transplants were performed on day 6. The 3AC derivative K118 (Soluble SHIPi) was suspended in pure H2O and heated at 100° C. for ˜15 min to allow the compound to enter solution. The delivery method was the same as with 3AC, however, the mice were treated for 5 days at a final concentration of 10 mg/kg. Vehicle cohorts for 3AC were treated with 0.3% Klucel/H20 and K118 were treated with pure H2O.
Cell isolation was performed according to method detailed in Hazen et al.^6 Briefly, WBM was flushed from both femurs and tibias per mouse with a 25-gauge needle, red blood cell lysed (eBioscience), and resuspended in staining media comprised of Hanks Buffered Saline Solution (HBSS), 2% heat inactivated fetal bovine serum (FBS), and 10 mM HEPES (Sigma). The cells harvested for the CRU assay were flushed, red blood cell lysed, washed, and resuspended in sterile phosphate buffered saline (PBS). Peripheral blood mononuclear cells (PBMC) were collected via submandibular bleed in EDTA Micorvette tubes (SARSTEDT).
All antibodies were from BD Biosciences or eBioscience. All WBM, PBMC and BM derived MSC cell populations were Fc blocked on ice for 10 min prior to antibody staining. Global reconstitution was determined by staining PBMC with CD45.1-PeCy7 and CD45.2-APC. Multi-lineage repopulation was determined by staining PBMC with CD3-FITC (145-2C11), CD19-PerCP5.5 (1D3), Mac1-PE (M1/70), Gr1-Alexa700 (RB6-8C5) and NK1.1-APC-Cy7 (PK136). The Lin−cKit+Sca1+CD34−Flk2− (LSKF34−) phenotype was utilized to determine frequency of LT-HSC, ST-HSC, and MPP; the stain was comprised of Lin-PerCP 5.5, cKit-APC (2B8), Sca1-PeCy7 (D7), CD34-FITC (RAM34), Flk2-PE (A2F10). LSKF-CXCR4 stain was used to determine surface expression of the homing marker CXCR4. All cells were washed twice with staining media, resuspended in staining media plus DAPI for dead cell exclusion, and then analyzed on a flow cytometer LSRII (BD Biosciences). All flow cytometry data was analyzed using FlowJo (9.4.3) software.
(In general: A flow cytometer gives signals particle by particle.)

Regarding `C[C@@]12CCC[C@H]1[C@@H]1CC[C@H]3C[C@@H](N)CC[C@]3(C)[C@H]1CC2.Cl` [K118, 3β-amino-5α-androstane hydrochloride], the BM cellularity result is “significant increase”, the “LT-HSC in BM” value was “significant increases”, the “MPP in BM” value is listed as “significant increases” and the “ST-HSC in BM” value is “significant increases”.
